One assay concerns the target T1, pCAF (Homo sapiens, UniProt Q92831).
T1 construct: purchased BIOMOL International (Plymouth Meeting, Pa.)
Kind of assay: Core histone acetylation filter binding HAT assay, pCAF. The following applies: core histones; for inhibitory activity on pCAF HAT: range of concentrations tested. Type of assay: biochemical. Here is the method:
In the presence of 0.5 μCi [^3H]acetyl Co A, 10 μg core histones was incubated with either 0.5 μg pCAF (filled circles, […]) or 0.83 μg p300 HAT domain (open circles, ∘) and the indicated heparin concentrations for 30 minutes at 30° C. Formation of [^3H]acetylated core histones was determined by vacuum filtration of the samples across a nitrocellulose membrane and quantitated by liquid scintillation counting. The data is expressed as the mean % Control ±SD. Background CPM in samples without added enzyme was 5781.25 while [^3H]acetylated histone CPM in samples without heparin were 16484.5 for the pCAF containing samples and 9960.5 for the p300 HAT domain samples.
10 μg core histones were incubated with 0.5 μg pCAF, 0.5 μCi [^3H]acetyl Co A and the indicated concentrations of chondroitin sulfate (filled circles, […]), dextran (open circles, ∘), D-glucosamine (filled squares, ▪), hyaluronic acid (open squares, □) or keratan sulfate (filled triangles, ▴) for 30 minutes at 30° C. 35 μl aliquots of the reaction mixtures were spotted onto nitrocellulose filter in a dot blot apparatus under vacuum to remove unincorporated [^3H]acetyl Co A. The sample wells and filters were washed with 50 mM tris pH 7.6 and the samples were processed for liquid scintillation counting. The data is expressed as the mean % Control ±SD. 100% is equal to the activity in the absence of any additives.
10 μg core histones was incubated with 0.5 μg pCAF, 0.5 μCi [^3H]acetyl Co A and the indicated concentrations of N-Desulfated Heparin (filled circles, […]) or Fully O-Desulfated Heparin (open circles, ∘) for 30 minutes at 30° C. 35 μl aliquots of the reaction mixtures were filtered through a nitrocellulose filter in a Bio Dot Apparatus under vacuum. The wells and filter were washed with 50 mM tris pH 7.6 and the membrane was processed for liquid scintillation counting. The data is expressed as the mean % Control ±SD.
FIGS. 15A and 15B show inhibition of pCAF HAT Activity by elastase generated proteoglycans. FIG. 15A, Proteoglycans (PG) were purified from pulmonary fibroblast elastase supernatants using anion exchange chromatographic methods. Heparan sulfate proteoglycan fragments (HSPGf) were generated by treating the PG fraction with 10 mU/ml chondroitinase ABC and repurifying the fragments by anion exchange chromatography. Core histones (10 μg) were incubated with 0.5 μg pCAF, 0.5 μCi [^3H]acetyl Co A and the indicated concentrations of PG (filled squares, ▪) or HSPGf (open squares, □) for 30 minutes at 30° C. 35 μl aliquots of the reaction mixtures were filtered through a nitrocellulose filter and the membrane was processed for liquid scintillation counting. The data is expressed as the mean % Control ±SD. FIG. 15B, Proteoglycans (PG) were purified from another preparation of pulmonary fibroblast elastase supernatants. Free GAG chains (B-PG) were generated by treating the PG fraction with alkaline borohydride and were recovered by anion exchange methods. Core histones (Core histones (10 μg) were incubated with 0.5 μg pCAF, 0.5 μCi [^3H]acetyl Co A and the indicated concentrations of PG (filled squares, ▪) or B-PG (open squares, □) for 30 minutes at 30° C. 35 μl aliquots of the reaction mixtures were filtered through a nitrocellulose filter and the membrane was processed for liquid scintillation counting. The data is expressed as the mean % Control ±SD.
10 μg core histones was incubated with 0.5 μg pCAF, 0.5 μCi [^3H]acetyl Co A and the indicated concentrations of 2-O-Desulfated Heparin ([…]) or 6-O-Desulfated Heparin (∘) for 30 minutes at 30° C. 35 μl aliquots of the reaction mixtures were filtered through a nitrocellulose filter in a Bio Dot Apparatus under vacuum. The wells and filter were washed with 50 mM tris pH 7.6 and the membrane was processed for liquid scintillation counting. The data is expressed as the mean % Control ±SD. […]

Another assay addresses T2, p300 HAT domain (Homo sapiens, UniProt Q09472).
T2 construct: 20 U/mL of HAT enzyme (p300 HAT domain; from Upstate); purchased Upstate (Lake Placid, N.Y.)
T2 sequence (Q09472 1287-1663 limits assumed): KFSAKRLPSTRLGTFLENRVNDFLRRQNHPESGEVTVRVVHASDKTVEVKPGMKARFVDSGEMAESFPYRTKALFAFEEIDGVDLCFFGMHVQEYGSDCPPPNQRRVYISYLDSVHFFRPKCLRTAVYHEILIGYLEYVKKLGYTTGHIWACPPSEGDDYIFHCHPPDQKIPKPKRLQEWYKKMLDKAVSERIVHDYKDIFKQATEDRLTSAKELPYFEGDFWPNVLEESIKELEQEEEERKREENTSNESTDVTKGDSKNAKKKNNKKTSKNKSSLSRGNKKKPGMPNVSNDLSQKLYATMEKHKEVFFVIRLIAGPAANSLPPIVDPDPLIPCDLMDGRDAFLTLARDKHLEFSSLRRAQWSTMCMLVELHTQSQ
Kind of assay: In vitro HAT activity assay, biotinylated histone H4 peptide substrate, streptavidin capture. The assay is classed as biochemical. The conditions noted are these: 10 ug/ml, p300, H4 peptide (FIG. 9). On the procedure: Biotinylated histone H4 peptide (substrate) is incubated with recombinant HAT enzyme (p300 catalytic domain) and ^3H-Acetyl-CoA, resulting in the covalent transfer of ^3H-acetate to the substrate. The ^3H-acetylated substrate can be extracted using immobilized streptavidin and counted in a scintillation counter. Thus, the amount of ^3H-acetylated substrate is a direct measure of HAT enzyme activity. Additional assays for HAT activity use core histones as the substrate and the ^3H-acetylated histone reaction products were separated from ^3H-Acetyl-CoA by membrane filtration.
Various concentrations of heparin were incubated in the presence of biotinylated histone H4 peptide, recombinant p300 catalytic domain, and [^3H]-acetyl-CoA for 1 hr at 30° C. Immobilized streptavidin was used to sequester the biotinylated substrate and was counted in a scintillation counter. Data presented are means of duplicates ±1 SE and are representative of five separate experiments. The amount of [^3H] associated with the immobilized streptavidin-biotinylated substrate in the absence of HAT enzyme (negative control) was 54.2±12.0.
HAT activity was assessed in vitro as outlined in FIG. 2. In a 1.7 mL microcentrifuge tube, 100 μL of substrate (biotinylated histone H4 peptide in 50 mM Tris, pH 7.4, 1 mM EDTA; from Pierce), 100 μL of a 5 mg/mL BSA solution (in H2O), 10.5 μL of 10×HAT buffer (500 mM Tris, pH 7.4, 10 mM EDTA), 20 U/mL of HAT enzyme (p300 HAT domain; from Upstate), and 1 μCi/mL of [^3H] Acetyl-CoA (Amersham) were mixed together and the reaction was allowed to proceed at 30° C. for 1 hour. Following this incubation, 100 μL of a 1:1 slurry of immobilized streptavidin (Pierce) pre-equilibrated in 1×HAT buffer (50 mM Tris, pH 7.4, 1 mM EDTA) was added and the sample was incubated for 30 min at RT on a rotating platform. After centrifugation at 10,000 g for 4 min, the supernatant containing the excess reactants was removed and the pellet containing the acetylated substrate bound to the immobilized streptavidin was washed 3 times with 500 μL RIPA buffer (50 mM Tris, pH 7.4, 150 mM NaCl, 1 mM EDTA, 1% NP-40, 0.5% SDC, 0.1% SDS). After the final wash, the pellet was resuspended in 500 μL 1×HAT buffer, diluted in EcoLite, and counted in a scintillation counter. Because of sample volume restrictions, reaction volumes were scaled down in some experiments.

Entries after “also recorded” stand apart in the source; their conditions may differ.

The results in this text go back to patent publication US20080227752A1, “Methods to Inhibit Histone Acetyltransferase Using Glycosaminoglycans” (Trustees of Boston University, priority 2004, published 2008).

T1 sequence (Q92831 whole entry): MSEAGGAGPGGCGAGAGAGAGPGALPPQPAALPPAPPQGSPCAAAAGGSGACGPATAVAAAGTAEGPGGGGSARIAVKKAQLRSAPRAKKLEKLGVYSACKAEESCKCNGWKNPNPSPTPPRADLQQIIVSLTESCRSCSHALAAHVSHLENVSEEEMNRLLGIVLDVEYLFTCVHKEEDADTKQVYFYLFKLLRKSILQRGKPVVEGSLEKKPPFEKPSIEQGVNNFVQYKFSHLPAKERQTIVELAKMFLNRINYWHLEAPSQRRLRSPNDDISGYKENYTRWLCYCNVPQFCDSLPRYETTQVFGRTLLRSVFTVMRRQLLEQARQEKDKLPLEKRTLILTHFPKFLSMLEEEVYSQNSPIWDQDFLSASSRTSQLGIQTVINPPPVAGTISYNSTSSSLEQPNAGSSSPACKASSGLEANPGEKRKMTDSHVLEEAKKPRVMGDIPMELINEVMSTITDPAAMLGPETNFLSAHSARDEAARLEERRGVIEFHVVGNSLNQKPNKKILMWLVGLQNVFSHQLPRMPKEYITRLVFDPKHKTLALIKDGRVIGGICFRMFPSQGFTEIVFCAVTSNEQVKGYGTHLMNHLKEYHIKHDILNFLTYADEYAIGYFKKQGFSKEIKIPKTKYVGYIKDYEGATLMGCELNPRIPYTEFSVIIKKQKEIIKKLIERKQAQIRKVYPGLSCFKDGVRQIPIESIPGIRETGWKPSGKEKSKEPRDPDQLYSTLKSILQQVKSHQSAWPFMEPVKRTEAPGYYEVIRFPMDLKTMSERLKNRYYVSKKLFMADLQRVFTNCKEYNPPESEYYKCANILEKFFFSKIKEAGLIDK

Take 2-O desulfated heparin: the “inhibitory activity on pCAF HAT” value on pCAF is “did not result in significant loss of function”. Moreover, the “HAT inhibitory activity of modified heparins” value on p300 HAT domain was “retained HAT inhibitory activity; also recorded: showed reduced activity when compared to heparin”. For 6-O desulfated heparin the same measures were “did not result in significant loss of function” and “retained HAT inhibitory activity; also recorded: showed reduced activity when compared to heparin”.

Take `CC(=O)N[C@H]1C(O)O[C@H](CO)[C@@H](O)[C@@H]1O` (stereo partly drawn) [N-acetyl glucosamine, N-Acetyl-D-glucosamine, reference compound]: at pCAF, the “inhibitory activity on pCAF HAT” value is recorded as “none of the monosaccharides showed any significant inhibitory activity”. Still for that read-out and setting: next, `N[C@H]1C(O)O[C@H](CO)[C@@H](O)[C@@H]1O` (stereo partly drawn) [glucosamine, D-glucosamine, reference compound]: “none of the monosaccharides showed any significant inhibitory activity”; `O=C[C@H](O)[C@@H](O)[C@H](O)[C@H](O)C(=O)O` [glucuronic acid, reference compound]: “none of the monosaccharides showed any significant inhibitory activity”.

Take N-desulfated heparin: at pCAF (30 minutes 30° C), the “50% inhibition (IC50)” value is about 20 µg/mL. Further, the “HAT inhibitory activity of modified heparins” value on p300 HAT domain is “nearly eliminated HAT (p300) inhibition”. Take chondroitin sulfate: the “inhibitory activity on pCAF HAT” value at pCAF is “showed inhibition”. Consider dextran [reference compound], for which the “inhibitory activity on pCAF HAT” value on pCAF is “did not show any inhibitory activity”. Consider hyaluronic acid, for which, at pCAF, the “effectiveness relative to heparin and other GAGs” value was “the least effective”; the “inhibitory activity on pCAF HAT” value is “showed inhibition”. In the case of keratan sulfate, the “inhibitory activity on pCAF HAT” value at pCAF was “showed inhibition”.
